Results taken from patent US20150329558A1, “FUSED HETEROCYCLIC COMPOUNDS AS ION CHANNEL MODULATORS” (Gilead Sciences, Inc., priority 2011, published 2015).

Each molecule was assayed against wild-type human cardiac sodium channel, hNav1.5 (late INa) (Homo sapiens, UniProt Q14524) (assay: Late INa screening assay (QPatch whole cell patch clamp)). Conditions: percent block of late INa, compound at 1 μM, 10 μM Tefluthrin, HEK293 hNav1.5; read-out: Late INa 1 μM.
Chain of wild-type human cardiac sodium channel, hNav1.5 (late INa) (Q14524 whole entry): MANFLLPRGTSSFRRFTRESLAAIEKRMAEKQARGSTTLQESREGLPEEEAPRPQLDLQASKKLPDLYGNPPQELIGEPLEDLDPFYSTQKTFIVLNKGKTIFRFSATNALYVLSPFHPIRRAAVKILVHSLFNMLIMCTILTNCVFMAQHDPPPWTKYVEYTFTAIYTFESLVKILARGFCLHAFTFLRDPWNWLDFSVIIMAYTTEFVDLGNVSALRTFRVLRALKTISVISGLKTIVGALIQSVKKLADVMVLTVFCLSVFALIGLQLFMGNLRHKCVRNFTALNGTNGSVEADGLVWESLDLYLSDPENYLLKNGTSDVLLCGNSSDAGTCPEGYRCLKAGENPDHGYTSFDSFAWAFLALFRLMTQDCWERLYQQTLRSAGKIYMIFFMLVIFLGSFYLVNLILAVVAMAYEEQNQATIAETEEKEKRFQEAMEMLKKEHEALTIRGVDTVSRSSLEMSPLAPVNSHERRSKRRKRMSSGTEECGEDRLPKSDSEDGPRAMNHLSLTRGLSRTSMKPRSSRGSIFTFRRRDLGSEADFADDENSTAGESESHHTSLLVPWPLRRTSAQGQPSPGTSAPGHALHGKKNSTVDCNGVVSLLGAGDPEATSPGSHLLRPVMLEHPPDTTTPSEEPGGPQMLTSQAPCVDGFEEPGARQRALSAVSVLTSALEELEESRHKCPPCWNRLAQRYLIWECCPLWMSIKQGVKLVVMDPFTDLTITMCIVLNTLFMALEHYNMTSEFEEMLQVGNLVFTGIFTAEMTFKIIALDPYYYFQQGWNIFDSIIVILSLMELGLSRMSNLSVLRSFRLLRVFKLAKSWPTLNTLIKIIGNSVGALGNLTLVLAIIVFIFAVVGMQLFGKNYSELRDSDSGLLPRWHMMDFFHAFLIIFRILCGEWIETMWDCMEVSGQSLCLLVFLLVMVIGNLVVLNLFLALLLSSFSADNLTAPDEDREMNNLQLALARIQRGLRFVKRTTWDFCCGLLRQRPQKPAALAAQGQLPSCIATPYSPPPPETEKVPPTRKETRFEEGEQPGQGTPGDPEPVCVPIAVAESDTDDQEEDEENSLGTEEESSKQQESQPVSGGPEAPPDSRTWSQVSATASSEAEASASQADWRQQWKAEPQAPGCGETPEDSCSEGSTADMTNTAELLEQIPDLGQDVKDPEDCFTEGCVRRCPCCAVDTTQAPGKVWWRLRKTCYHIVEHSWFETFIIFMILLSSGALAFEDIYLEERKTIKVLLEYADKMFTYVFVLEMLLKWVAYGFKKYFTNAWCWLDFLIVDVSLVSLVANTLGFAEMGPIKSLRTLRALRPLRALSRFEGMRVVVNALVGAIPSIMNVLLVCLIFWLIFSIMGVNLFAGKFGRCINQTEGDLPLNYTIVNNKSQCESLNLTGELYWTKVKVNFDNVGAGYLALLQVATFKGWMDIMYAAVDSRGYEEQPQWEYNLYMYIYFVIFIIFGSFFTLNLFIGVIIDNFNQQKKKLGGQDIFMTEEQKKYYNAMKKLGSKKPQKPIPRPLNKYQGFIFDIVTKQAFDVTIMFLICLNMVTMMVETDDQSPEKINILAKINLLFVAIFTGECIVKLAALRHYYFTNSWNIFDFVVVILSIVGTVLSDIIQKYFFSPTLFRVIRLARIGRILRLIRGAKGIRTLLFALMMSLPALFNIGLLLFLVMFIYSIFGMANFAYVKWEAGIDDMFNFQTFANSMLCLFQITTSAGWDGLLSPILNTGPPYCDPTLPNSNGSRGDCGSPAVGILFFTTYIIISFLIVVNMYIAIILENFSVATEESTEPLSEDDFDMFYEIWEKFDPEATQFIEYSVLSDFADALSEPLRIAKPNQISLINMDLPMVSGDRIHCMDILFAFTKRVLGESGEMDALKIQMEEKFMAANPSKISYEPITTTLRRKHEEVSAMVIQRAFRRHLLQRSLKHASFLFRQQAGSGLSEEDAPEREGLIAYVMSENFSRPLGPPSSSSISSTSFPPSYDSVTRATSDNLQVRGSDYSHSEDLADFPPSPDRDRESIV
Format: cell-based
Protocol: The late sodium current (Late INa) and peak sodium current (Peak INa) assays are performed on an automated electrophysiology platform, QPatch 16× (Sophion Bioscience, Copenhagen, Denmark), which uses the whole cell patch clamp technique to measure currents through the cell membrane of up to 16 cells at a time. The assay uses an HEK293 (human embryonic kidney) cell line heterologously expressing the wild-type human cardiac sodium channel, hNav1.5, purchased from Millipore (Billerica, Mass.). No beta subunits were coexpressed with the Na channel alpha subunit. Cells are maintained with standard tissue culture procedures and stable channel expression is maintained with 400 μg/mL Geneticin in the culture medium. […] Experiments are carried out at 23-25° C. For both the Late INa and Peak INa assays, series resistance compensation is set to 100% and series resistance and whole-cell compensation are performed automatically. Currents are digitized at 25 kHz and low-pass filtered at 12 kHz and 10 kHz for the late and peak INa assays, respectively. Currents through open sodium channels are automatically recorded and stored in the Sophion Bioscience Oracle database (Sophion Bioscience, Copehagen, Denmark). Analysis is performed using QPatch Assay and database software and data are compiled in Excel. Compound stocks are routinely made by the Gilead Sample Bank in plastic vials to 10 mM in dimethyl sulfoxide (DMSO). In some cases, when compounds are not soluble in DMSO, they are made in 100% ethanol. Stocks are sonicated as necessary. […] The intracellular solution used to perfuse the inside of the cells for both the Late INa and Peak INa assays contains: 120 mM CsF, 20 mM CsCl, 5 mM EGTA, 5 mM HEPES and pH adjusted to 7.4 with CsOH. Compounds are diluted in extracellular solution to 1 μM in glass vials and then transferred to glass well plates before robotic addition to the cells. […] For the Late INa assay, sodium channels are activated every 10 seconds (0.1 Hz) by depolarizing the cell membrane to −20 mV for 250 milliseconds (ms) from a holding potential of −120 mV. In response to a −20 mV voltage step, typical hNav1.5 sodium currents activate rapidly to a peak negative current and then inactivate nearly completely within 3-4 ms. All compounds were tested to determine their activity in blocking the late sodium current. Late INa was generated by adding 10 μM Tefluthrin (pyrethroid) to the extracellular solution while recording Na currents. To confirm the block of late INa observed using the automated screening method, a second late INa enhancer (ATX-II) and the manual patch clamp method were used. ATX-II and tefluthrin occupy distinct, non-overlapping binding sites and modify Na^+ channel function differently to increase late INa. […] For the purposes of the screening, late INa is defined as the mean current between 225 ms and 250 ms after stepping to −20 mV to activate Na channels. […] Results are reported as percent block of late INa.
Molecule `Cc1cc(C(=O)N2CCc3ccc(-c4ccc(C(F)(F)F)cc4)cc3C2)nc(N)n1` [IX-34, (2-amino-6-methylpyrimidin-4-yl)(7-(4-(trifluoromethyl)phenyl)-3,4-dihydroisoquinolin-2(1H)-yl)methanone] has an inhibition at 1 µM of 16%.
For `Cn1cncc1C(=O)N1CCc2ccc(-c3ccc(C(F)(F)F)cc3)cc2C1` [IX-56, (1-methyl-1H-imidazol-5-yl)(7-(4-(trifluoromethyl)phenyl)-3,4-dihydroisoquinolin-2(1H)-yl)methanone], the inhibition at 1 µM was 28%.
For `O=C(c1[nH]cnc1F)N1CCc2ccc(-c3ccc(C(F)(F)F)cc3)cc2C1` [IX-59, (4-fluoro-1H-imidazol-5-yl)(7-(4-(trifluoromethyl)phenyl)-3,4-dihydroisoquinolin-2(1H)-yl)methanone], the inhibition at 1 µM was 17%.
For `O=c1c2cc(-c3ccc(OC(F)(F)F)cc3)ccc2cnn1CCn1cc(Br)cn1` [III-31, 2-(2-(4-bromo-1H-pyrazol-1-yl)ethyl)-7-(4-(trifluoromethoxy)phenyl)phthalazin-1 (2H)-one], the inhibition at 1 µM was 27%.
In the case of `O=c1c2cc(-c3ccc(OC(F)(F)F)cc3)ccc2cnn1CCc1ccccc1` [III-8, 2-phenethyl-7-(4-(trifluoromethoxy)phenyl)phthalazin-1(2H)-one], the inhibition at 1 µM is reported as 19%.
`O=C1c2cc(-c3ccc(C(F)(F)F)cc3F)ccc2OCN1Cc1ccccc1` [VIII-22, 3-benzyl-6-(2-fluoro-4-(trifluoromethyl)phenyl)-2H-benzo[e][1,3]oxazin-4(3H)-one] was tested, and the inhibition at 1 µM was 45%.
Work on `O=C(N1CCc2ccc(-c3ccc(C(F)(F)F)cc3)cc2C1)N1CC(Oc2cccnc2)C1` [IX-93, (3-(pyridin-3-yloxy)azetidin-1-yl)(7-(4-(trifluoromethyl)phenyl)-3,4-dihydroisoquinolin-2(1H)-yl)methanone] yielded an inhibition at 1 µM of 15%.
`Nc1n[nH]c(C(=O)N2CCc3ccc(-c4ccc(C(F)(F)F)cc4)cc3C2)n1` [IX-111, (3-amino-1H-1,2,4-triazol-5-yl)(7-(4-(trifluoromethyl)phenyl)-3,4-dihydroisoquinolin-2(1H)-yl)methanone] gave an inhibition at 1 µM of 27%.
`O=C(Cn1nnc2ccc(-c3ccc(Oc4ccc(Cl)cc4)cc3)cc2c1=O)N1CCN(c2ncccn2)CC1` [II-65, 6-(4-(4-chlorophenoxyl)phenyl)-3-(2-oxo-2-(4-(pyrimidin-2-yl)piperazin-1-yl)ethyl)benzo[d][1,2,3]triazin-4(3H)-one] showed an inhibition at 1 µM of 19%.
In the case of `O=C(NC1CC1)N1CCc2ccc(-c3ccc(C(F)(F)F)cc3)cc2C1` [IX-44, N-cyclopropyl-7-(4-(trifluoromethyl)phenyl)-3,4-dihydroisoquinoline-2(1H)-carboxamide], the inhibition at 1 µM is reported as 27%.
With `O=c1c2cc(-c3ccc(OC(F)(F)F)cc3)ccc2nnn1C1CCN(c2ncccn2)CC1` [II-39, 3-(1-(pyrimidin-2-yl)piperidin-4-yl)-6-(4-(trifluoromethoxy)phenyl)benzo[d][1,2,3]triazin-4(3H)-one] the inhibition at 1 µM was 16%.
Molecule `O=C(N1CCc2ccc(-c3ccc(C(F)(F)F)cc3)cc2C1)N1CCC(F)C1` (stereo not shown) [IX-94, (3-fluoropyrrolidin-1-yl)(7-(4-(trifluoromethyl)phenyl)-3,4-dihydroisoquinolin-2(1H)-yl)methanone] has an inhibition at 1 µM of 33%.
Work on `O=c1c2cc(-c3ccc(OC(F)(F)F)cc3)ccc2nnn1C1CC1` [II-22, 3-cyclopropyl-6-(4-(trifluoromethoxy)phenyl)benzo[d][1,2,3]triazin-4(3H)-one] yielded an inhibition at 1 µM of 21%.
`O=c1c2cc(-c3ccc(OC(F)(F)F)cc3)ccc2cnn1Cc1cc(-c2ccccn2)on1` [III-41, 2-((5-(pyridin-2-yl)isoxazol-3-yl)methyl)-7-(4-(trifluoromethoxy)phenyl)phthalazin-1 (2H)-one] showed an inhibition at 1 µM of 24%.
Molecule `O=C(N1CCc2ccc(-c3ccc(C(F)(F)F)cc3)cc2C1)N1CC(F)C1` [IX-95, (3-fluoroazetidin-1-yl)(7-(4-(trifluoromethyl)phenyl)-3,4-dihydroisoquinolin-2(1H)-yl)methanone] has an inhibition at 1 µM of 25%.
In the case of `CC1CN(C(=O)N2CCc3ccc(-c4ccc(C(F)(F)F)cc4)cc3C2)C1` [IX-107, (3-methylazetidin-1-yl)(7-(4-(trifluoromethyl)phenyl)-3,4-dihydroisoquinolin-2(1H)-yl)methanone], the inhibition at 1 µM is reported as 24%.
With `O=C(c1ncccn1)N1CCc2ccc(-c3ccc(Cl)cc3F)cc2C1` [IX-23, (7-(4-chloro-2-fluorophenyl)-3,4-dihydroisoquinolin-2(1H)-yl)(pyrimidin-2-yl)methanone] the inhibition at 1 µM was 27%.
In the case of `O=C1c2cc(-c3ccc(OC(F)(F)F)cc3)ccc2OCN1Cc1ccccc1` [VIII-23, 3-benzyl-6-(4-(trifluoromethoxy)phenyl)-2H-benzo[e][1,3]oxazin-4(3H)-one], the inhibition at 1 µM is reported as 48%.
With `O=C(c1ncccn1)N1CCc2ccc(-c3ccc(Cl)c(F)c3)cc2C1` [IX-24, (7-(4-chloro-3-fluorophenyl)-3,4-dihydroisoquinolin-2(1H)-yl)(pyrimidin-2-yl)methanone] the inhibition at 1 µM was 19%.
With `O=C(NCc1ncccn1)N1CCc2ccc(-c3ccc(OC(F)(F)F)cc3)cc2C1` [IX-123, N-(pyrimidin-2-ylmethyl)-7-(4-(trifluoromethoxy)phenyl)-3,4-dihydroisoquinoline-2(1H)-carboxamide] the inhibition at 1 µM was 17%.
`O=c1c2cc(-c3ccc(OC(F)(F)F)cc3)ccc2nnn1Cc1nc(Cc2ccccc2)no1` [II-12, 3-((3-benzyl-1,2,4-oxadiazol-5-yl)methyl)-6-(4-(trifluoromethoxy)phenyl)benzo[d][1,2,3]triazin-4(3H)-one] was tested, and the inhibition at 1 µM was 21%.
In the case of `O=c1c2cc(-c3ccc(OC(F)(F)F)cc3)ccc2cnn1CCn1cncn1` [III-26, 2-(2-(1H-1,2,4-triazol-1-yl)ethyl)-7-(4-(trifluoromethoxy)phenyl)phthalazin-1 (2H)-one], the inhibition at 1 µM is reported as 26%.
`CC(C)c1nccc(C(=O)N2CCc3ccc(-c4ccc(C(F)(F)F)cc4)cc3C2)n1` [IX-31, (2-isopropylpyrimidin-4-yl)(7-(4-(trifluoromethyl)phenyl)-3,4-dihydroisoquinolin-2(1H)-yl)methanone] gave an inhibition at 1 µM of 25%.
`CC(c1nc(C2CC2)no1)n1nnc2ccc(-c3ccc(OC(F)(F)F)cc3)cc2c1=O` (stereo not shown) [II-79, 3-(1-(3-cyclopropyl-1,2,4-oxadiazol-5-yl)ethyl)-6-(4-(trifluoromethoxy)phenyl)benzo[d][1,2,3]triazin-4(3H)-one] was tested, and the inhibition at 1 µM was 54%.
`O=C(N1CCc2ccc(-c3ccc(C(F)(F)F)cc3)cc2C1)N1CCC(O)C1` (stereo not shown) [IX-91, (3-hydroxypyrrolidin-1-yl)(7-(4-(trifluoromethyl)phenyl)-3,4-dihydroisoquinolin-2(1H)-yl)methanoneo] gave an inhibition at 1 µM of 16%.
In the case of `CC(C)(C)OC(=O)N1CCC[C@@H]1C(=O)N1CCc2ccc(-c3ccc(C(F)(F)F)cc3)cc2C1` [IX-114, (R)-tert-butyl 2-(7-(4-(trifluoromethyl)phenyl)-1,2,3,4-tetrahydroisoquinoline-2-carbonyl)pyrrolidine-1-carboxylate], the inhibition at 1 µM is reported as 20%.
Work on `O=c1c2cc(-c3ccc(OC(F)(F)F)cc3)ccc2nnn1Cn1nnnc1-c1ccccc1` [II-21, 3-((5-phenyl-1H-tetrazol-1-yl)methyl)-6-(4-(trifluoromethoxy)phenyl)benzo[d][1,2,3]triazin-4(3H)-one] yielded an inhibition at 1 µM of 70%.
In the case of `O=C(c1ccn[nH]1)N1CCc2ccc(-c3ccc(C(F)(F)F)cc3)cc2C1` [IX-36, (1H-pyrazol-5-yl)(7-(4-(trifluoromethyl)phenyl)-3,4-dihydroisoquinolin-2(1H)-yl)methanone], the inhibition at 1 µM is reported as 20%.
`O=C(N1CCc2ccc(-c3ccc(C(F)(F)F)cc3)cc2C1)N1CC(CO)C1` [IX-113, (3-(hydroxymethyl)azetidin-1-yl)(7-(4-(trifluoromethyl)phenyl)-3,4-dihydroisoquinolin-2(1H)-yl)methanone] showed an inhibition at 1 µM of 17%.
Molecule `O=c1c2cc(-c3ccc(OC(F)(F)F)cc3)ccc2nnn1Cc1cc(-c2ccccc2)no1` [II-10, 3-((3-phenylisoxazol-5-yl)methyl)-6-(4-(trifluoromethoxy)phenyl)benzo[d][1,2,3]triazin-4(3H)-one] has an inhibition at 1 µM of 21%.
Molecule `O=c1c2cc(-c3ccc(OC(F)(F)F)cc3)ccc2cnn1Cc1ccccc1` [III-6, 2-benzyl-7-(4-(trifluoromethoxy)phenyl)phthalazin-1(2H)-one] has an inhibition at 1 µM of 18%.
